Reference: PubChem BioAssay (NCI)
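In this assay, cells in 96-well plates receive the compound at five concentrations for 48 hours. Endpoints are linearly interpolated between the surrounding concentrations. GI50 is the concentration that inhibits growth by half. At the TGI there is no net growth.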

What was measured:
Assay in all cases: NCI-60 cell line screen, 48 h
NCI-H460 lung = test system: NCI-H460 lung
NCI-H23 lung = test system: NCI-H23 lung
K-562 leukemia = test system: K-562 leukemia
SF-295 CNS = test system: SF-295 CNS
NCI-H226 lung = test system: NCI-H226 lung
DU-145 prostate = test system: DU-145 prostate
RPMI-8226 leukemia = test system: RPMI-8226 leukemia
MCF7 breast = test system: MCF7 breast
SW-620 colon = test system: SW-620 colon
MDA-MB-231 breast = test system: MDA-MB-231 breast
LOX IMVI melanoma = test system: LOX IMVI melanoma
TK-10 renal = test system: TK-10 renal
ACHN renal = test system: ACHN renal
A498 renal = test system: A498 renal
MDA-MB-435 = test system: MDA-MB-435
HOP-62 NSCLC = test system: HOP-62 NSCLC
HOP-92 NSCLC = test system: HOP-92 NSCLC
U251 CNS = test system: U251 CNS
PC-3 prostate = test system: PC-3 prostate
A549 NSCLC = test system: A549 NSCLC
CAKI-1 renal = test system: CAKI-1 renal
HCT-15 colon = test system: HCT-15 colon
SN12C renal = test system: SN12C renal
UACC-62 melanoma = test system: UACC-62 melanoma
HS 578T breast = test system: HS 578T breast
MALME-3M melanoma = test system: MALME-3M melanoma
SK-MEL-5 melanoma = test system: SK-MEL-5 melanoma
OVCAR-8 ovarian = test system: OVCAR-8 ovarian
UACC-257 melanoma = test system: UACC-257 melanoma
OVCAR-4 ovarian = test system: OVCAR-4 ovarian
NCI/ADR-RES ovarian = test system: NCI/ADR-RES ovarian
UO-31 renal = test system: UO-31 renal
SK-MEL-2 melanoma = test system: SK-MEL-2 melanoma
IGROV1 ovarian = test system: IGROV1 ovarian
KM12 colon = test system: KM12 colon
SR leukemia = test system: SR leukemia
EKVX NSCLC = test system: EKVX NSCLC
SF-268 CNS = test system: SF-268 CNS
OVCAR-5 ovarian = test system: OVCAR-5 ovarian
SK-OV-3 ovarian = test system: SK-OV-3 ovarian
COLO 205 colon = test system: COLO 205 colon
SF-539 CNS = test system: SF-539 CNS
SNB-19 CNS = test system: SNB-19 CNS
HT29 colon = test system: HT29 colon
786-0 renal = test system: 786-0 renal
SK-MEL-28 melanoma = test system: SK-MEL-28 melanoma
HCT-116 colon = test system: HCT-116 colon
HL-60(TB) leukemia = test system: HL-60(TB) leukemia
OVCAR-3 ovarian = test system: OVCAR-3 ovarian
RXF 393 renal = test system: RXF 393 renal
MOLT-4 leukemia = test system: MOLT-4 leukemia
BT-549 breast = test system: BT-549 breast
T-47D breast = test system: T-47D breast
HCC-2998 colon = test system: HCC-2998 colon
NCI-H522 lung = test system: NCI-H522 lung
M14 melanoma = test system: M14 melanoma
SNB-75 CNS = test system: SNB-75 CNS
CCRF-CEM leukemia = test system: CCRF-CEM leukemia

## ClCCN(CCCl)c1ccc(/C=N/Nc2ccnc3ccccc23)cc1
NCI-H460 lung
  TGI: > 100 µM
NCI-H23 lung
  TGI: 3.89 µM
K-562 leukemia
  TGI: 3.15 µM
SF-295 CNS
  TGI: 2.99 µM
NCI-H226 lung
  TGI: 3.48 µM
DU-145 prostate
  TGI: 3.5 µM
RPMI-8226 leukemia
  TGI: 3.97 µM
MCF7 breast
  TGI: > 100 µM
SW-620 colon
  TGI: 4.48 µM
MDA-MB-231 breast
  TGI: 3.45 µM
LOX IMVI melanoma
  TGI: 3.09 µM
TK-10 renal
  TGI: 3.15 µM
ACHN renal
  TGI: 3.37 µM
A498 renal
  TGI: 46.7 µM
MDA-MB-435
  TGI: 3.14 µM
HOP-62 NSCLC
  TGI: 4.75 µM
HOP-92 NSCLC
  TGI: 3.38 µM
U251 CNS
  TGI: 3.03 µM
PC-3 prostate
  TGI: 2.99 µM
A549 NSCLC
  TGI: 3.38 µM
CAKI-1 renal
  TGI: 3.8 µM
HCT-15 colon
  TGI: 2.86 µM
SN12C renal
  TGI: 3.18 µM
UACC-62 melanoma
  TGI: 3.23 µM
HS 578T breast
  TGI: 5.1 µM
MALME-3M melanoma
  TGI: 3.19 µM
SK-MEL-5 melanoma
  TGI: 3.47 µM

## CCN(CC)CCCCCCNc1cc(OC)cc2cccnc12
NCI-H460 lung
  GI50: 2 µM
  TGI: 3.79 µM
OVCAR-8 ovarian
  GI50: 3.04 µM
  TGI: 8.99 µM
UACC-257 melanoma
  GI50: 20.2 µM
  TGI: 36.8 µM
OVCAR-4 ovarian
  GI50: 2.5 µM
  TGI: 9.55 µM
NCI-H23 lung
  GI50: 13.3 µM
  TGI: 30.3 µM
NCI/ADR-RES ovarian
  GI50: 7.16 µM
  TGI: 27.3 µM
UO-31 renal
  GI50: 11.5 µM
  TGI: 29.5 µM
K-562 leukemia
  GI50: 1.74 µM
  TGI: 3.58 µM
SK-MEL-2 melanoma
  GI50: 17.6 µM
  TGI: 32.6 µM
SF-295 CNS
  GI50: 11.4 µM
  TGI: 26.5 µM
NCI-H226 lung
  GI50: 21.3 µM
  TGI: 43.2 µM
IGROV1 ovarian
  GI50: 2.27 µM
  TGI: 4.86 µM
DU-145 prostate
  GI50: 1.8 µM
  TGI: 3.65 µM
KM12 colon
  GI50: 3.15 µM
  TGI: 10.5 µM
RPMI-8226 leukemia
  GI50: 2.38 µM
  TGI: 5.45 µM
MCF7 breast
  GI50: 1.74 µM
  TGI: 3.56 µM
SW-620 colon
  GI50: 1.79 µM
  TGI: 3.71 µM
LOX IMVI melanoma
  GI50: 1.74 µM
  TGI: 3.31 µM
SR leukemia
  GI50: 1.99 µM
  TGI: 4.1 µM
TK-10 renal
  GI50: 16.1 µM
  TGI: 30.8 µM
EKVX NSCLC
  GI50: 13.4 µM
  TGI: 26.3 µM
SF-268 CNS
  GI50: 1.72 µM
  TGI: 3.83 µM
ACHN renal
  GI50: 1.84 µM
  TGI: 3.56 µM
OVCAR-5 ovarian
  GI50: 6.74 µM
  TGI: 22.7 µM
MDA-MB-435
  GI50: 1.84 µM
  TGI: 3.63 µM
HOP-62 NSCLC
  GI50: 2.06 µM
  TGI: 5.11 µM
SK-OV-3 ovarian
  GI50: 17.7 µM
  TGI: 33 µM
COLO 205 colon
  GI50: 1.94 µM
  TGI: 3.85 µM
HOP-92 NSCLC
  GI50: 12.5 µM
  TGI: 27.6 µM
U251 CNS
  GI50: 2.38 µM
  TGI: 5.2 µM
SF-539 CNS
  GI50: 1.84 µM
  TGI: 3.53 µM
PC-3 prostate
  GI50: 2.06 µM
  TGI: 4.1 µM
SNB-19 CNS
  GI50: 8.17 µM
  TGI: 30.8 µM
A549 NSCLC
  GI50: 4.35 µM
  TGI: 15.4 µM
CAKI-1 renal
  GI50: 12.4 µM
  TGI: 26.6 µM
HCT-15 colon
  GI50: 1.9 µM
  TGI: 3.78 µM
HT29 colon
  GI50: 1.82 µM
  TGI: 3.43 µM
786-0 renal
  GI50: 2.11 µM
  TGI: 4.32 µM
SK-MEL-28 melanoma
  GI50: 2.09 µM
  TGI: 4.53 µM
SN12C renal
  GI50: 2.29 µM
  TGI: 5 µM
HCT-116 colon
  GI50: 1.93 µM
  TGI: 3.55 µM
UACC-62 melanoma
  GI50: 2.29 µM
  TGI: 5.16 µM
HL-60(TB) leukemia
  GI50: 1.94 µM
  TGI: 4.03 µM
HS 578T breast
  GI50: 12.3 µM
  TGI: 42.3 µM
OVCAR-3 ovarian
  GI50: 1.74 µM
  TGI: 3.4 µM
RXF 393 renal
  GI50: 4.26 µM
  TGI: 15.7 µM
MALME-3M melanoma
  GI50: 2.03 µM
  TGI: 3.93 µM
MOLT-4 leukemia
  GI50: 1.84 µM
  TGI: 3.86 µM
BT-549 breast
  GI50: 17.4 µM
  TGI: 33.6 µM
T-47D breast
  GI50: 17.5 µM
  TGI: 38.6 µM
SK-MEL-5 melanoma
  GI50: 2.53 µM
  TGI: 6.34 µM
HCC-2998 colon
  GI50: 2.32 µM
  TGI: 5 µM
NCI-H522 lung
  GI50: 2.17 µM
  TGI: 4.76 µM
M14 melanoma
  GI50: 1.93 µM
  TGI: 3.74 µM
SNB-75 CNS
  GI50: 13.8 µM
  TGI: 30.6 µM
CCRF-CEM leukemia
  GI50: 2.39 µM
  TGI: 4.97 µM
